From patent US8455435B2, “Remedies for ischemia” (Ludwig-Maximilians-Universitat Munchen, priority 2006, dated 2013)
Values joined by “and” are separate entries in the source; they are usually repeats but may differ in a detail not shown here. Identical values can stand only once.

How the values were obtained:
VEGF-A and VEGF-R1 = test: VEGF-A/VEGF-R1 expression in infarct and borderzone after MI, PTH treatment; format: in vivo, mice
Excerpt: FIGS. 18A-18B: Immunohistochemical staining of VEGF-A protein in the granulation tissue at the infarct borderzone and RT-PCR analysis of VEGF-A/VEGF-R1 expression • A) Representative staining of VEGF-A protein (brown) in the granulation tissue of sham operated (left), saline (middle) and PTH treated hearts (right). VEGF-A protein is mainly localized on infiltrated cells in the granulation tissue at the borderzone. • B) Bar graphs representing the relative fold increase of VEGF-A (left) and VEGF-1 receptor (right) mRNA expression of saline treated (n=3, striped bars) and of PTH treated myocardial tissue (n=3-5, black bars) normalized to non infarcted control mice (n=3) 48 hours after myocardial infarction. *p<0.05.

myocardial function = test: Pressure volume relations in vivo (conductance catheter) after MI, PTH treatment; design: species or system C57BL/6 mice
Experimental: Myocardial infarction was induced in male C57BL/6 mice 8-12 weeks of age by surgical occlusion of the left anterior descending artery (LAD) through a left anterolateral approach. Mice were anesthetized by intraperitoneal injection of a mixture of 100 mg/kg ketamine (Sigma Chemical Co., St. Louis, Mo.) and 5 mg/kg Xylazine (Sigma), intubated and artificially ventilated by a mouse ventilator (HUGO SACHS, March, Germany) with 200 strokes/min and 200 μl/stroke. Animal care and all experimental procedures were performed in strict accordance to the German and National Institutes of Health animal legislation guidelines and were approved by the local animal care and use committees.
After occlusion of the LAD, mice were divided into the following groups 1) subcutaneous administration of saline daily for 5 days, sacrificed at day 6 (n=10) and day 30 (n=15); 2) administration of rat PTH (1-34) daily for 5 and 14 consecutive days (80 μg/kg/d s.c., Bachem), sacrificed at day 6 (n=9) and day 30 (n=15); 3) sham operated animals sacrificed at day 30 (n=5), and not operated control animals receiving saline (n=6) sacrificed at day 6 and at day 30. All animals received BrdU ([…]) for 5 consecutive days. BrdU and cytokine treatment were started 12-24 hours after LAD occlusion.
For evaluation of pressure-volume relationships in vivo, surviving mice of the group 1) MI day 6 (n=6) and day 30 (n=6), 2) MI+PTH day 6 (n=6) and day 30 (n=6), and 3) sham (n=5) and control (n=6) animals were anesthetized with thiopental (100 mg/kg, i.p.), intubated and ventilated (MiniVent, HUGO SACHS, Freiburg, Germany). After catheterization via the right carotid artery an impedance-micromanometer catheter (Millar Instruments, Houston, Tex.) was introduced into the left ventricle. Raw conductance volumes were corrected for parallel conductance by the hypertonic saline dilution method. For absolute volume measurements, the catheter was calibrated with known volumes of heparin treated mouse blood. Pressure-volume signals were recorded at steady state and during transient preload reduction achieved by vena cava occlusion to obtain values independent of cardiac afterload^45. Data analyses were performed as previously described^44 using PVAN analysis software (HUGO SACHS, March, Germany).

rat PTH (1-34)
expression of VEGF-A and VEGF-R1 (VEGF-A and VEGF-R1): pronounced expression
maximum LV pressure (myocardial function; PTH treatment of sham operated animals): 80.3±2.1 mmHg
arterial elastance (Ea) (myocardial function; day 6 after MI): 6.1±0.5 mmHg/μl and 6.0 mmHg/μl
cardiac output (myocardial function; day 6 after MI): 5537 µL/min
contractility (myocardial function; day 6 after MI): 4742±394 mmHg/sec
ejection fraction (EF) (myocardial function; day 6 after MI): 30%
stroke work (myocardial function; day 6 after MI): increased
diastolic function (Tau glantz) (myocardial function; day 6 after MI, vs saline): without significant changes
arterial elastance (Ea) (myocardial function; day 30 after MI): 7.2±0.5 mmHg/μl and 7.1 mmHg/μl
cardiac output (myocardial function; day 30 after MI): 3810±205
diastolic relaxation (Tau Glantz) (myocardial function; day 30 after MI): 12.0 ± 0.8 ms
ejection fraction (EF) (myocardial function; day 30 after MI): 29.0±7.1% and 29%
enddiastolic volume (EDV) (myocardial function; day 30 after MI): 34.4±6.1
stroke work (myocardial function; day 30 after MI): 382±59 mmHg×μl
